pIC50: −log10 of the molar value.
Tested on: HSV-1
Assay: HSV-1 infection of Vero 76 cells, viral DNA detected by hybridization capture (chemiluminescence)
Assay type: cell-based
Conditions: Human alphaherpesvirus 1; HSV-1 in Vero 76 cells, MOI=0.001, compounds incubated 40–48 hours at 37° C.; read-out: IC50
Source text: In the following example, “MEM” means Minimal Essential Media; “FBS” means Fetal Bovine Serum; “NP40” and “Igepal” are detergents; “MOI” means Multiplicity of Infection; “NaOH” means sodium hydroxide; “MgCl2” means magnesium chloride; “dATP” means deoxyadenosine 5′ triphosphate; “dUTP” means deoxyuridine 5′ triphosphate; “dCTP” means dexoxycytidine 5′ triphosphate; “dGTP” means deoxyguanosine 5′ triphosphate; “GuSCN” means Guanidinium thiocyanate; “EDTA” means ethylenediamine tetraacetic acid; “TE” means Tris-EDTA; “SCC” means sodium chloride/sodium citrate; “APE” means a solution of ammonia acetate, ammonia phosphate, EDTA; “PBS” means phosphate buffered saline; and “HRP” means horseradish peroxidase.
Vero 76 cells were maintained in MEM with Earle's salts, L-glutamine, 8% FBS (Hyclone, A-1111-L) and 100 units/mL Penicillin-100 μg/mL Streptomycin. For assay conditions, FBS was reduced to 2%. Cells are seeded into 96-well tissue culture plates at a density of 5×10^4 cells/well after being incubated for 45 min at 37° C. in the presence of HSV-1 or HSV-2 (MOI=0.001). Test compounds are added to the wells and the plates are incubated at 37° C. for 40–48 hours. Cell lysates are prepared as follows: media was removed and replaced with 150 μL/well 0.2 N NaOH with 1% Igepal CA 630 or NP-40. Plates were incubated up to 14 days at room temperature in a humidified chamber to prevent evaporation.
For the detection probe, a gel-purified, digoxigenin-labeled, 710-bp PCR fragment of the HSV UL-15 sequence was utilized. PCR conditions included 0.5 μM primers, 180 μM dTTP, 20 μM dUTP-digoxigenin (Boehringer Mannheim 1558706), 200 μM each of dATP, dCTP, and dGTP, 1×PCR Buffer II (Perkin Elmer), 2.5 mM MgCl2, 0.025 units/μL of AmpliTaq Gold polymerase (Perkin Elmer), and 5 ng of gel-purified HSV DNA per 100 μL Extension conditions were 10 min at 95° C., followed by 30 cycles of 95° C. for 1 min, 55° C. for 30 sec, and 72° C. for 2 min. The amplification was completed with a 10-min incubation at 72° C. Primers were selected to amplify a 728 bp probe spanning a section of the HSV1 UL15 open reading frame (nucleotides 249–977). Single-stranded transcripts were purified with Promega M13 Wizard kits. The final product was mixed 1:1 with a mixture of 6 M GuSCN, 100 mM EDTA and 200 μg/mL herring sperm DNA and stored at 4° C.
The capture DNA plasmid (HSV UL13 region in pUC) was linearized by cutting with Xba I, denatured for 15 min at 95° C. and diluted immediately into Reacti-Bind DNA Coating Solution (Pierce, 17250, diluted 1:1 with TE buffer, pH 8) at 1 ng/μL 75 μL/well were added to Corning (#3922 or 9690) white 96-well plates and incubated at room temperature for at least 4 hrs before washing twice with 300 μL/well 0.2×SSC/0.05% Tween-20 (SSC/T buffer). The plates were then incubated overnight at room temperature with 150 μL/well 0.2 N NaOH, 1% IGEPAL and 10 μg/mL herring sperm DNA.
Twenty-seven (27) μL of cell lysate was combined with 45 μL of hybridization solution (final concentration: 3M GuSCN, 50 mM EDTA, 100 μg/ml salmon sperm DNA, 5×Denhardt's solution, 0.25×APE, and 5 ng of the digoxigenin-labeled detection probe). APE is 1.5 M NH4-acetate, 0.15 M NH4H2 phosphate, and 5 mM EDTA adjusted to pH 6.0. Mineral oil (50 μL) was added to prevent evaporation. The hybridization plates were incubated at 95° C. for 10 minutes to denature the DNA, then incubated at 42° C. overnight. The wells were washed 6× with 300 μL/well SSC/T buffer then incubated with 75 μL/well anti-digoxigenin-HRP-conjugated antibody (Boehringer Mannheim 1207733, 1:5000 in TE) for 30 min at room temperature. The wells were washed 6× with 300 μL/well with PBS/0.05% Tween-20 before 75 μL/well SuperSignal LBA substrate (Pierce) was added. The plates were incubated at room temperature for 30 minutes and chemiluminescence was measured in a Wallac Victor reader.
The following results were obtained for HSV-1.

| SMILES | pIC50 |
| --- | --- |
| COc1cccc(-c2nn3c(N(C)C)cccc3c2-c2ccnc(NC3CCCC3)n2)c1 [Example 53, 3-[2-(Cyclopentylamino)-4-pyrimidinyl]-2-(3-methoxyphenyl)-N,N-dimethylpyrazolo[1,5-a]pyridin-7-amine] | 5.96 |
| Oc1cccc(-c2nn3c(NC4CCCC4)cccc3c2-c2ccnc(NC3CCCC3)n2)c1 [Example 54, 3-{7-(Cyclopentylamino)-3-[2-(cyclopentylamino)-4-pyrimidinyl]pyrazolo[1,5-a]pyridin-2-yl}phenol] | 6.19 |
| COc1ccc(-c2nn3c(N4CCOCC4)cccc3c2-c2ccnc(NC3CC3)n2)cc1 [Example 63, N-Cyclopropyl-4-[2-(4-methoxyphenyl)-7-(4-morpholinyl)pyrazolo[1,5-a]pyridin-3-yl]-2-pyrimidinamine] | 5.92 |
| COc1ccc(-c2nn3c(NC4CC4)cccc3c2-c2ccnc(NC3CC3)n2)cc1 [Example 66, N-Cyclopropyl-3-[2-(cyclopropylamino)-4-pyrimidinyl]-2-(4-methoxyphenyl)pyrazolo[1,5-a]pyridin-7-amine] | 5.89 |
| Oc1ccc(-c2nn3c(NC4CCCC4)cccc3c2-c2ccnc(NC3CC3)n2)cc1 [Example 68, 4-{7-(Cyclopentylamino)-3-[2-(cyclopropylamino)-4-pyrimidinyl]-pyrazolo[1,5-a]pyridin-2-yl}phenol] | 5.92 |
| Oc1ccc(-c2nn3c(NC4CC4)cccc3c2-c2ccnc(NC3CC3)n2)cc1 [Example 69, 4-{7-(Cyclopropylamino)-3-[2-(cyclopropylamino)-4-pyrimidinyl]-pyrazolo[1,5-a]pyridin-2-yl}phenol] | 5.64 |
| c1cc(NC2CC2)n2nc(-c3ccc(OCC4CC4)cc3)c(-c3ccnc(NC4CC4)n3)c2c1 [Example 72, N-Cyclopropyl-3-[2-(cyclopropylamino)-4-pyrimidinyl]-2-[4-(cyclopropylmethoxy)phenyl]pyrazolo[1,5-a]pyridin-7-amine] | 5.85 |
| C=CCOc1ccc(-c2nn3c(NC4CC4)cccc3c2-c2ccnc(NC3CC3)n2)cc1 [Example 73, 2-[4-(Allyloxy)phenyl]-N-cyclopropyl-3-[2-(cyclopropylamino)-4-pyrimidinyl]pyrazolo[1,5-a]pyridin-7-amine] | 5.70 |
| CCCCNc1nccc(-c2c(-c3ccc(N4CCOCC4)cc3)nn3c(NCCCC)cccc23)n1 [Example 75, N-Butyl-3-[2-(butylamino)pyrimidin-4-yl]-2-(4-morpholin-4-ylphenyl)pyrazolo[1,5-a]pyridin-7-amine] | 4.57 |
| COC(=O)CNc1cccc2c(-c3ccnc(NC4CCCC4)n3)c(-c3ccc(OC)cc3)nn12 [Example 79, Methyl N-[3-[2-(cyclopentylamino)pyrimidin-4-yl]-2-(4-methoxyphenyl)pyrazolo[1,5-a]pyridin-7-yl]glycinate] | 5.60 |

Compounds with a higher pIC50, results first:

| pIC50 | SMILES |
| --- | --- |
| 6.22 | c1cc(NC2CC2)n2nc(-c3ccc(OCC4CC4)cc3)c(-c3ccnc(NC4CCCC4)n3)c2c1 [Example 70, 3-[2-(Cyclopentylamino)-4-pyrimidinyl]-N-cyclopropyl-2-[4-(cyclopropylmethoxy)phenyl]pyrazolo[1,5-a]pyridin-7-amine] |
| 6.22 | COc1ccc(-c2nn3c(NCCCCN)cccc3c2-c2ccnc(NC3CCCC3)n2)cc1 [Example 81, N-[3-[2-(Cyclopentylamino)pyrimidin-4-yl]-2-(4-methoxyphenyl)-pyrazolo[1,5-a]pyridin-7-yl]butane-1,4-diamine] |
| 6.30 | COc1ccc(-c2nn3c(NCCN4CCOCC4)cccc3c2-c2ccnc(NC3CC3)n2)cc1 [Example 65, 3-[2-(Cyclopropylamino)-4-pyrimidinyl]-2-(4-methoxyphenyl)-N-[2-(4-morpholinyl)ethyl]pyrazolo[1,5-a]pyridin-7-amine] |
| 6.30 | C=CCOc1ccc(-c2nn3c(NC4CCCC4)cccc3c2-c2ccnc(NC3CC3)n2)cc1 [Example 71, 2-[4-(Allyloxy)phenyl]-N-cyclopentyl-3-[2-(cyclopropylamino)-4-pyrimidinyl]pyrazolo[1,5-a]pyridin-7-amine] |
| 6.40 | COc1ccc(-c2nn3c(NC4CCCC4)cccc3c2-c2ccnc(NC3CC3)n2)cc1 [Example 58, N-Cyclopentyl-3-[2-(cyclopropylamino)-4-pyrimidinyl]-2-(4-methoxyphenyl)pyrazolo[1,5-a]pyridin-7-amine] |
| 6.40 | COc1ccc(-c2nn3c(NCCN4CCOCC4)cccc3c2-c2ccnc(NC3CCCC3)n2)cc1 [Example 59, 3-[2-(Cyclopentylamino)-4-pyrimidinyl]-2-(4-methoxyphenyl)-N-[2-(4-morpholinyl)ethyl]pyrazolo[1,5-a]pyridin-7-amine] |
| 6.40 | COc1ccc(-c2nn3c(NC4CC4)cccc3c2-c2ccnc(NC3CCCC3)n2)cc1 [Example 60, 3-[2-(Cyclopentylamino)-4-pyrimidinyl]-N-cyclopropyl-2-(4-methoxyphenyl)pyrazolo[1,5-a]pyridin-7-amine] |
| 6.52 | COCCNc1cccc2c(-c3ccnc(NC4CC4)n3)c(-c3ccc(OC)cc3)nn12 [Example 64, 3-[2-(Cyclopropylamino)-4-pyrimidinyl]-N-(2-methoxyethyl)-2-(4-methoxyphenyl)pyrazolo[1,5-a]pyridin-7-amine] |
| 6.52 | Oc1ccc(-c2nn3c(NC4CC4)cccc3c2-c2ccnc(NC3CCCC3)n2)cc1 [Example 67, 4-[3-[2-(Cyclopentylamino)-4-pyrimidinyl]-7-(cyclopropylamino)pyrazolo[1,5-a]pyridin-2-yl]phenol] |
| 6.70 | Fc1cccc(-c2nn3c(NC4CCCC4)cccc3c2-c2ccnc(NC3CCCC3)n2)c1 [Example 56, N-Cyclopentyl-3-[2-(cyclopentylamino)-4-pyrimidinyl]-2-(3-fluorophenyl)pyrazolo[1,5-a]pyridin-7-amine] |
| 6.70 | Clc1cccc(-c2nn3c(NC4CCCC4)cccc3c2-c2ccnc(NC3CCCC3)n2)c1 [Example 57, 2-(3-Chlorophenyl)-N-cyclopentyl-3-[2-(cyclopentylamino)-4-pyrimidinyl]pyrazolo[1,5-a]pyridin-7-amine] |
| 6.70 | COc1ccc(-c2nn3c(N4CCOCC4)cccc3c2-c2ccnc(NC3CCCC3)n2)cc1 [Example 61, N-Cyclopentyl-4-[2-(4-methoxyphenyl)-7-(4-morpholinyl)pyrazolo[1,5-a]pyridin-3-yl]-2-pyrimidinamine] |
| 7.00 | c1cc(OCC2CC2)cc(-c2nn3c(NC4CCCC4)cccc3c2-c2ccnc(NC3CCCC3)n2)c1 [Example 55, N-Cyclopentyl-3-[2-(cyclopentylamino)-4-pyrimidinyl]-2-[3-(cyclopropylmethoxy)phenyl]pyrazolo[1,5-a]pyridin-7-amine] |
| 7.00 | COCCNc1cccc2c(-c3ccnc(NC4CCCC4)n3)c(-c3ccc(OC)cc3)nn12 [Example 62, 3-[2-(Cyclopentylamino)-4-pyrimidinyl]-N-(2-methoxyethyl)-2-(4-methoxyphenyl)pyrazolo[1,5-a]pyridin-7-amine] |
